ChEMBL document CHEMBL5647694, “Novel orally bioavailable EZH1/2 dual inhibitors with greater antitumor efficacy than an EZH2 selective inhibitor” (Cancer Sci, 2017)
Activity calls are given as the source filed them. The calls are words filed in the database; no cut-off is given here.

Legend:
Mus musculus = assay: In vivo inhibition of EZH1/2 in CB17/Icr-Prkdcscid/CrlCrlj mouse xenografted with human KARPAS-422 cells assessed as decrease in H3K27me3 level in tumor at 3.1 to 50 mg/kg, po BID for 14 days and measured 1 day after cessation of drug dosing; type: functional, organism-based; details: dose 3.1-50 mg/kg, time 14.0 day
[1] = Toxicity in Crl:CD Sprague-Dawley rat assessed as vacuolation of histiocytes in thymus cortex at 100 mg/kg, po administered daily for 14 days by hematoxylin and eosin staining based analysis; type: organism-based; details: in vivo, 336 h, time 14 day
[2] = Mean AUC (0-24 hrs) in Crl:CD Sprague-Dawley rat at 100 mg/kg, po administered daily for 14 days by LC/MS/MS analysis; type: ADME, organism-based; details: in vivo, time 14 day
KARPAS-422 = assay: Antitumor activity against human KARPAS-422 cells xenografted in CB17/Icr-Prkdcscid/CrlCrlj mouse assessed as inhibition of tumor growth at 50 mg/kg, po BID for 14 days; type: functional, organism-based; details: time 14.0 day
[3] = Toxicity in Crl:CD Sprague-Dawley rat assessed as MCHC level in blood at 100 mg/kg, po administered daily for 14 days (reference value: 32.7 +/-0.05%); type: organism-based; details: in vivo, 336 h, time 14 day
[4] = Toxicity in Crl:CD Sprague-Dawley rat assessed as hemoglobin level in blood at 100 mg/kg, po administered daily for 14 days (reference value: 13.5 +/-0.386 g/dL); type: organism-based; details: in vivo, 336 h, time 14 day
[5] = Toxicity in Crl:CD Sprague-Dawley rat assessed as total bilirubin level in blood at 100 mg/kg, po administered daily for 14 days (reference value: 0.003+/-0.005 mg/dL); type: organism-based; details: in vivo, 336 h, time 14 day
HCC2935 = assay: Antitumor activity against human HCC2935 cells assessed as cell growth inhibition treated for 10 to 15 days; type: functional; details: time 10-15 day
OV-90 = assay: Antitumor activity against human OV-90 cells assessed as cell growth inhibition treated for 10 to 15 days; type: functional; details: time 10-15 day
Panc1005 = assay: Antitumor activity against human Panc1005 cells assessed as cell growth inhibition treated for 10 to 15 days; type: functional; details: time 10-15 day
[6] = Antitumor activity against human RDES cells assessed as cell growth inhibition treated for 10 to 15 days; type: functional; details: RD-ES, time 10-15 day
H9 = assay: Antitumor activity against human H9 cells assessed as cell growth inhibition treated for 10 to 15 days; type: functional; details: time 10-15 day
MCF7 = assay: Antitumor activity against human MCF7 cells assessed as cell growth inhibition treated for 10 to 15 days; type: functional; details: time 10-15 day
OCI-Ly7 = assay: Antitumor activity against human OCILY7 cells assessed as cell growth inhibition treated for 10 to 15 days; type: functional; details: time 10-15 day
[7] = target: Protein arginine N-methyltransferase 3 (Homo sapiens, UniProt O60678); assay: Inhibition of human PRMT3 using Histone H4 and [3H]SAM as substrate incubated for 30 mins to 1 hr by HotSpot kinase assay
Chain of Protein arginine N-methyltransferase 3 (O60678 whole entry): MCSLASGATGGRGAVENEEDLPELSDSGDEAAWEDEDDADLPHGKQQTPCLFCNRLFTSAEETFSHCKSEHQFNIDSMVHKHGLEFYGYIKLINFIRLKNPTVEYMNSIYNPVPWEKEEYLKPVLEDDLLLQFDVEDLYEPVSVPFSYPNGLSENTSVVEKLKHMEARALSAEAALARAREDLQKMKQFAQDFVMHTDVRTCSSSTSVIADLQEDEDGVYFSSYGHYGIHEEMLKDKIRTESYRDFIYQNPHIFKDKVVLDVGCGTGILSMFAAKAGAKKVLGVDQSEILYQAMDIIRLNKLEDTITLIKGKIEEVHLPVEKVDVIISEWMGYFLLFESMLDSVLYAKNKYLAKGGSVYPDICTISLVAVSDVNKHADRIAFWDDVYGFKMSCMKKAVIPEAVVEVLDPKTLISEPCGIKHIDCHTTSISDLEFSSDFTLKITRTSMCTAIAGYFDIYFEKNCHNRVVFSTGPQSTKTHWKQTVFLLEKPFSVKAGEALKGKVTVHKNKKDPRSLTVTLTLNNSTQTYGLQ

MLMA = assay: Antitumor activity against human MLMA cells assessed as cell growth inhibition treated for 10 to 15 days; type: functional; details: time 10-15 day
MDA-MB-436 = assay: Antitumor activity against human MDA-MB-436 cells assessed as cell growth inhibition treated for 10 to 15 days; type: functional; details: time 10-15 day
MDA-MB-134-VI = assay: Antitumor activity against human MDA-MB-134-VI cells assessed as cell growth inhibition treated for 10 to 15 days; type: functional; details: time 10-15 day
K562 = assay: Antitumor activity against human K562 cells assessed as cell growth inhibition treated for 10 to 15 days; type: functional; details: time 10-15 day
A204 = assay: Antitumor activity against human A204 cells assessed as cell growth inhibition treated for 10 to 15 days; type: functional; details: time 10-15 day
RPMI-8226 = assay: Antitumor activity against human RPMI-8226 cells assessed as cell growth inhibition treated for 10 to 15 days; type: functional; details: time 10-15 day
OVCAR-3 = assay: Antitumor activity against human OVCAR-3 cells assessed as cell growth inhibition treated for 10 to 15 days; type: functional; details: time 10-15 day
OCI-LY19 = assay: Antitumor activity against human OCILY19 cells assessed as cell growth inhibition treated for 10 to 15 days; type: functional; details: time 10-15 day
ST486 = assay: Antitumor activity against human ST486 cells assessed as cell growth inhibition treated for 10 to 15 days; type: functional; details: time 10-15 day
Kasumi 1 = assay: Antitumor activity against human Kasumi 1 cells assessed as cell growth inhibition treated for 10 to 15 days; type: functional; details: time 10-15 day
MX1 = assay: Antitumor activity against human MX1 cells assessed as cell growth inhibition treated for 10 to 15 days; type: functional; details: time 10-15 day
TOV21G = assay: Antitumor activity against human TOV-21G cells assessed as cell growth inhibition treated for 10 to 15 days; type: functional; details: time 10-15 day
HCT-116 = assay: Antitumor activity against human HCT-116 cells assessed as cell growth inhibition treated for 10 to 15 days; type: functional; details: time 10-15 day
MOLM-14 = assay: Antitumor activity against human MOLM-14 cells assessed as cell growth inhibition treated for 10 to 15 days; type: functional; details: time 10-15 day
[8] = Antitumor activity against human BCP-1 cells assessed as cell growth inhibition treated for 10 to 15 days; type: functional; details: time 10-15 day
MDA-MB-231 = assay: Antitumor activity against human MDA-MB-231 cells assessed as cell growth inhibition treated for 10 to 15 days; type: functional; details: time 10-15 day
REH = assay: Antitumor activity against human REH cells assessed as cell growth inhibition treated for 10 to 15 days; type: functional; details: time 10-15 day
RKO = assay: Antitumor activity against human RKO cells assessed as cell growth inhibition treated for 10 to 15 days; type: functional; details: time 10-15 day
[9] = Antitumor activity against human HUG1N cells assessed as cell growth inhibition treated for 10 to 15 days; type: functional; details: time 10-15 day
HuT78 = assay: Antitumor activity against human HuT78 cells assessed as cell growth inhibition treated for 10 to 15 days; type: functional; details: time 10-15 day
UACC-893 = assay: Antitumor activity against human UACC-893 cells assessed as cell growth inhibition treated for 10 to 15 days; type: functional; details: time 10-15 day
[10] = target: Ephrin type-B receptor 2 (Homo sapiens) (UniProt P29323); assay: Inhibition of N-terminal GST-fused human EPHB2 cytoplasmic domain (581 to 987 residues) expressed in baculovirus-infected Sf21 cells using Blk/Lyntide as substrate at 1 uM in presence of ATP by Mobility shift assay
[11] = Antitumor activity against human NCI-H841 cells assessed as cell growth inhibition treated for 10 to 15 days; type: functional; details: time 10-15 day
[12] = target: Histone-lysine N-methyltransferase NSD3 (Homo sapiens, UniProt Q9BZ95); assay: Inhibition of human NSD3 using Nucleosomes and [3H]SAM as substrate incubated for 30 mins to 1 hr by HotSpot kinase assay
Chain of Histone-lysine N-methyltransferase NSD3 (Q9BZ95 whole entry): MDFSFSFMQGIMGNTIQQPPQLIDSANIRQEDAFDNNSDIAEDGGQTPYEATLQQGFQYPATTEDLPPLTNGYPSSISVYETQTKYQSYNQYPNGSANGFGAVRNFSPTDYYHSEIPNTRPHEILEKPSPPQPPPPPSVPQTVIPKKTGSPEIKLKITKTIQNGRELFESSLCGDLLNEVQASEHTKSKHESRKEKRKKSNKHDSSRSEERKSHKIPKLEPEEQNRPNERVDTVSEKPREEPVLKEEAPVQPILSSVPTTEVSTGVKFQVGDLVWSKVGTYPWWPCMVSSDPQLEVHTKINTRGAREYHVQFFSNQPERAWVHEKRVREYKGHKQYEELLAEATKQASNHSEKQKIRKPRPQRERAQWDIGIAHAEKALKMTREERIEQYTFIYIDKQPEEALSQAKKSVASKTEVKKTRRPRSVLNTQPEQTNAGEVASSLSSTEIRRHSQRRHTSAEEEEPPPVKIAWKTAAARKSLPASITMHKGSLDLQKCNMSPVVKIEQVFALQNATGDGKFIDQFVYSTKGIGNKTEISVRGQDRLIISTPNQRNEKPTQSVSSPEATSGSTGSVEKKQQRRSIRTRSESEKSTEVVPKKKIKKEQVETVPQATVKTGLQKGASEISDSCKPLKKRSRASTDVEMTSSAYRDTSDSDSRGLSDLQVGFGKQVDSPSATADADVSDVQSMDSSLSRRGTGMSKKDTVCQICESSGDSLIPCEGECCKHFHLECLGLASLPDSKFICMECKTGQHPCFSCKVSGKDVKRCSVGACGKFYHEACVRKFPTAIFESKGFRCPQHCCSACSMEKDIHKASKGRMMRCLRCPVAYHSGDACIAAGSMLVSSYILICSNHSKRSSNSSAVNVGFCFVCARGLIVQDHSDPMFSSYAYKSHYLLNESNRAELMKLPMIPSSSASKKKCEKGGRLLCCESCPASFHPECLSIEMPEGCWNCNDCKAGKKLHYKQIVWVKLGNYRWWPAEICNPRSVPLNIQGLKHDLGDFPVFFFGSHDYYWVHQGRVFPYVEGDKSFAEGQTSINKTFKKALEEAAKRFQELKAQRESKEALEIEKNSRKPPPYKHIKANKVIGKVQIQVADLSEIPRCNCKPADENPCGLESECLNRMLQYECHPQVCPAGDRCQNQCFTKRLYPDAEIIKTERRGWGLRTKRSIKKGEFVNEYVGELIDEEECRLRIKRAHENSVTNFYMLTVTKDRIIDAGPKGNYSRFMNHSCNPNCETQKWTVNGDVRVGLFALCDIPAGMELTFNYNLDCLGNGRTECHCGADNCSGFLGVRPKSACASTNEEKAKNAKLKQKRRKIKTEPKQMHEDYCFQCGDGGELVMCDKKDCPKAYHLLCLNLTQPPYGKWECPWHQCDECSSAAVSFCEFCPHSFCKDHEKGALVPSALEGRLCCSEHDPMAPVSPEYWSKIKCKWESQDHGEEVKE

[13] = target: Histone-lysine N-methyltransferase, H3 lysine-36 specific (Homo sapiens, UniProt Q96L73); assay: Inhibition of human NSD1 using Nucleosomes and [3H]SAM as substrate incubated for 30 mins to 1 hr by HotSpot kinase assay
Chain of Histone-lysine N-methyltransferase, H3 lysine-36 specific (Q96L73 whole entry): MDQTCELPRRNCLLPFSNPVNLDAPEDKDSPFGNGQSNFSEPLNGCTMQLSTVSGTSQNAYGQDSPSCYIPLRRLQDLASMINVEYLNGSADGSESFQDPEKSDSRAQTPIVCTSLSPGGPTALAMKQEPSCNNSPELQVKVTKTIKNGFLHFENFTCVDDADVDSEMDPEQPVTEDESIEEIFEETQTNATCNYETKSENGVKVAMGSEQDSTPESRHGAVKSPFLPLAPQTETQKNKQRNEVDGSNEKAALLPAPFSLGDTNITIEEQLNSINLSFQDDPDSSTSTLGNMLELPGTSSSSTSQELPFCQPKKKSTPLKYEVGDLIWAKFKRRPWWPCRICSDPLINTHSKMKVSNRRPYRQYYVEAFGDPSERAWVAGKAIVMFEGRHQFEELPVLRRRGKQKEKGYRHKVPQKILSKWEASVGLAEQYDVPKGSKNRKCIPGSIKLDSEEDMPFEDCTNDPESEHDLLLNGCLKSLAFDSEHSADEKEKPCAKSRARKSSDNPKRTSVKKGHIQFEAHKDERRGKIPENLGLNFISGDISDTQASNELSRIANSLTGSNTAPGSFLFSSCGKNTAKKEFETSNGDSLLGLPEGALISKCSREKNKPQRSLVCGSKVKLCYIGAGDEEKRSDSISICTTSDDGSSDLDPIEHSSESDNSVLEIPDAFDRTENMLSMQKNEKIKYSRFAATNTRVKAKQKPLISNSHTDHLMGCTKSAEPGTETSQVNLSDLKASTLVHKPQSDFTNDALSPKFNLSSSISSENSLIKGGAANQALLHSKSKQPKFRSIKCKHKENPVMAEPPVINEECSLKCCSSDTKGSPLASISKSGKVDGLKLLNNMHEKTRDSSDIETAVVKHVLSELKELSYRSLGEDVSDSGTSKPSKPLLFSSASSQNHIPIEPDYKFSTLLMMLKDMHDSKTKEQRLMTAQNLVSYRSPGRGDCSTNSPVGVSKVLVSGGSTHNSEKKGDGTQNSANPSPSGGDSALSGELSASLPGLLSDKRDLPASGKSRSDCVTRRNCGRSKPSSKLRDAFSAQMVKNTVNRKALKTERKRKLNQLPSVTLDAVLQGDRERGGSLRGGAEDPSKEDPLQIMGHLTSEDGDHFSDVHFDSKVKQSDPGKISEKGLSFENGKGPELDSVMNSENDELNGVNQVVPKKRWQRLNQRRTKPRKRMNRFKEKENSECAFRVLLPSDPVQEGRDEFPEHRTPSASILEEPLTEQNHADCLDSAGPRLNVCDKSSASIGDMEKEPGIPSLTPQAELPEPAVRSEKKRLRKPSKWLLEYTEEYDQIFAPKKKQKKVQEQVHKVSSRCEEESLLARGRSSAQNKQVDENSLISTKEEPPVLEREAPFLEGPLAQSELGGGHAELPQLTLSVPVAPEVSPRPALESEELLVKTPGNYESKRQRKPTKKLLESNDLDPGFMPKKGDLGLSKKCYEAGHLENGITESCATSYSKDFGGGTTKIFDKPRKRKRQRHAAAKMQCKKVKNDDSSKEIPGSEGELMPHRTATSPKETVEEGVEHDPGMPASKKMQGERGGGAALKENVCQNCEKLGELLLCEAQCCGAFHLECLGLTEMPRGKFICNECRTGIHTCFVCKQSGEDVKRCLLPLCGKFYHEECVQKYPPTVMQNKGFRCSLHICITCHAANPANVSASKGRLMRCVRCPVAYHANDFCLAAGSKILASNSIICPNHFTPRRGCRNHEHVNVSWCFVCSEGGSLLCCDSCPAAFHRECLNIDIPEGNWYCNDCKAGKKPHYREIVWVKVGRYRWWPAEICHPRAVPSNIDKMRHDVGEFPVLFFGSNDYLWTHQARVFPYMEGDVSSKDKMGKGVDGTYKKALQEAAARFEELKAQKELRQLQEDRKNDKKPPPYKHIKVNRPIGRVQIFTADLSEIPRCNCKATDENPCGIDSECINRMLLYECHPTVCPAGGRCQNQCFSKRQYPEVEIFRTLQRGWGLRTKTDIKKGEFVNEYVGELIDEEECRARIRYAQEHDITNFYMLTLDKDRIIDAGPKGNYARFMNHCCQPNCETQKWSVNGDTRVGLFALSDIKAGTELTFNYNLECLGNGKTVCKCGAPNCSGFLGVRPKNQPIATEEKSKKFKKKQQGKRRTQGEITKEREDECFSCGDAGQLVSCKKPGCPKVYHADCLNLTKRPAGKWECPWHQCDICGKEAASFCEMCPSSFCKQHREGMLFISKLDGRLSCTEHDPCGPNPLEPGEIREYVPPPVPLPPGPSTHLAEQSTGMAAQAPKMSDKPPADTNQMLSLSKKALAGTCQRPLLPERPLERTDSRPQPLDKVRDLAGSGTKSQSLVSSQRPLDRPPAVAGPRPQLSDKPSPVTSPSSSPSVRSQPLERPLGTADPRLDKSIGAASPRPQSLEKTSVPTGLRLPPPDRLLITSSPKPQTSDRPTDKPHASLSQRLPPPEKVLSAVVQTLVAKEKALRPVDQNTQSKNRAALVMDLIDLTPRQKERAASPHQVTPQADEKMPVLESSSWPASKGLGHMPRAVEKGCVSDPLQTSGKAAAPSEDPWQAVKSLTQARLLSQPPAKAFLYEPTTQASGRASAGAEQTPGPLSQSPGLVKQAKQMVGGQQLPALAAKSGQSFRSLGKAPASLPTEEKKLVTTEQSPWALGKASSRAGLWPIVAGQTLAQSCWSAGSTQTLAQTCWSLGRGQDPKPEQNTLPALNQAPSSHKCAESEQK

KG-1 = assay: Antitumor activity against human KG-1 cells assessed as cell growth inhibition treated for 10 to 15 days; type: functional; details: time 10-15 day
SK-OV-3 = assay: Antitumor activity against human SK-OV-3 cells assessed as cell growth inhibition treated for 10 to 15 days; type: functional; details: time 10-15 day
[14] = Antitumor activity against human MJ cells assessed as cell growth inhibition treated for 10 to 15 days; type: functional; details: time 10-15 day

Cc1cc(C)c(CNC(=O)c2cc(Br)c3c(c2C)O[C@@](C)([C@H]2CC[C@H](N(C)C)CC2)O3)c(=O)[nH]1
inhibition (Mus musculus): Active | Activity [1]: Toxic | AUC at 336 h [2]: 27.9 µM·h | Activity (KARPAS-422): Active | Activity [3]: 32.5% | Activity [4]: 13 g/dL | Activity [5]: 0.028 mg/dL

Cc1cc(C)c(CNC(=O)c2cc(Cl)c3c(c2C)O[C@@](C)([C@H]2CC[C@H](N(C)C)CC2)O3)c(=O)[nH]1 [VALEMETOSTAT]
GI50 (HCC2935): > 1000 nM | GI50 (OV-90): > 1000 nM | GI50 (Panc1005): > 1000 nM | GI50 [6]: > 1000 nM | GI50 (H9): 9.58 nM | GI50 (MCF7): > 1000 nM | GI50 (OCI-Ly7): 59.2 nM | IC50 [7]: 100000 nM | GI50 (MLMA): 273 nM | GI50 (MDA-MB-436): > 1000 nM | GI50 (MDA-MB-134-VI): > 1000 nM | GI50 (K562): 788 nM | GI50 (A204): 29.2 nM | GI50 (RPMI-8226): 1.91 nM | GI50 (OVCAR-3): > 1000 nM | GI50 (OCI-LY19): > 1000 nM | GI50 (ST486): > 1000 nM | GI50 (Kasumi 1): 70 nM | GI50 (MX1): > 1000 nM | GI50 (TOV21G): 55.5 nM | GI50 (HCT-116): > 1000 nM | GI50 (MOLM-14): 70 nM | GI50 [8]: > 1000 nM | GI50 (MDA-MB-231): > 1000 nM | GI50 (REH): > 1000 nM | GI50 (RKO): > 1000 nM | GI50 [9]: 142 nM | GI50 (HuT78): > 1000 nM | GI50 (UACC-893): > 1000 nM | inhibition [10]: -6.2% | GI50 [11]: 134 nM | IC50 [12]: 100000 nM | IC50 [13]: 100000 nM | GI50 (KG-1): 700 nM | GI50 (SK-OV-3): > 1000 nM | GI50 [14]: 26 nM
